Publication PMC12696353, “Structural insights into endogenous agonist selectivity of aminergic receptors from the octopamine β2 receptor” (PNAS Nexus, 2025)
Substitutions are numbered along the chain they refer to. Entries after “also recorded” stand apart in the source; their conditions may differ.

Key:
[1] = target: T1, is-octβ2R I61^1.42F mutant (Ixodes scapularis, UniProt A0ACM8E5E8, I40F); experiment: TGFα shedding assay, amitraz-resistant mutant I61^1.42F; assay type: cell-based; conditions: Table S4
T1 sequence (A0ACM8E5E8 1-384 I40F): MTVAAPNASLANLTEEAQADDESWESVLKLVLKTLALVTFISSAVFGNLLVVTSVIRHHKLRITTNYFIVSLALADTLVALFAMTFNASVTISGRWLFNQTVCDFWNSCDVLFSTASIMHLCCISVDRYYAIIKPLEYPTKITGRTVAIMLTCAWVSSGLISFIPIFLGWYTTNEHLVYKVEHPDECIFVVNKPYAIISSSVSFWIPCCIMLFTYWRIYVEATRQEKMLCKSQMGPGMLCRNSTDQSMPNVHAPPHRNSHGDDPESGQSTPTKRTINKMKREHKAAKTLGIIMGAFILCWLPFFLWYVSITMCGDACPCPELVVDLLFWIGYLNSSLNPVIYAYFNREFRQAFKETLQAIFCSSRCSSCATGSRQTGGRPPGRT
Description: (§1) The TGFα shedding assay was performed as previously described ([28]). […] The cells were transfected using lipofectamine 2000 with plasmids encoding alkaline phosphatase–tagged TGFα (AP-TGFα) (2.5 ng/mL), is-octβ2Rs (1 ng/mL), and Gαq/s (0.5 ng/mL). After 24 h, the cells were washed with phosphate-buffered saline and resuspended in Hank's balanced salt solution (HBSS) (supplemented with 5 mM HEPES [pH 7.4]). The cells (90 μL/well) were plated in a 96-well plate and incubated with 10 μL of HBSS solution containing various concentrations of compounds for 1 h at 37 °C. Following centrifugation (200 × g, 2 min), 80 μL of the supernatant was transferred to a separate 96-well plate. Subsequently, 80 µL of 2× para-nitrophenyl phosphate (pNPP) buffer (containing 10 mM pNPP in 40 mM Tris–HCl [pH 9.5], 40 mM NaCl, and 10 mM MgCl2) was added to both the supernatant and cell-containing plates. The optical density at 405 nm of both plates was measured before and after a 1 h incubation at room temperature using a microplate reader (SpectraMax iD3, Molecular Devices, San Jose, CA, United States). AP-TGFα release was calculated using the following formulas:
(§2) ΔOD405=OD450(1h)−OD405(0h)AP−TGFαinsupernatant(%)=(ΔOD405Sup/[ΔOD450Sup+ΔOD405Cell])×125AP−TGFαrelease(%)=AP−TGFαinsupernatantunderastimulatedcondition(%)−AP−TGFαinsupernatantunderavehicle−treatedcondition
(§3) where OD405 (0 h) and […] represent the OD405 before and after a 1 h incubation, respectively, and OD405Sup and OD405Cell represent the OD405 of supernatant and cell plates, respectively. For all pharmacological analyses, nonlinear regression curve fitting was performed with a 3-parameter sigmoid model (Hill coefficient = 1) using Prism 8 (GraphPad Software, La Jolla, CA, United States).

[2] = target: T2, is-octβ2R Y67^2.41S mutant (Ixodes scapularis, UniProt A0ACM8E5E8, Y67S); experiment: TGFα shedding assay, amitraz-resistant mutant Y67^2.41S; assay type: cell-based; conditions: Table S4
T2 sequence (A0ACM8E5E8 1-384 Y67S): T1 sequence (A0ACM8E5E8 1-384 I40F) with F40I, Y67S
Description: as §1, §2, §3

[3] = target: T3, is-octβ2R N87^2.61S mutant (Ixodes scapularis, UniProt A0ACM8E5E8, N87S); experiment: TGFα shedding assay, amitraz-resistant mutant N87^2.61S; assay type: cell-based; conditions: Table S4
T3 sequence (A0ACM8E5E8 1-384 N87S): T1 sequence (A0ACM8E5E8 1-384 I40F) with F40I, N87S
Description: as §1, §2, §3

[4] = target: T4, is-octβ2R Y215^5.58H mutant (Ixodes scapularis, UniProt A0ACM8E5E8, Y215H); experiment: TGFα shedding assay, amitraz-resistant mutant Y215^5.58H; assay type: cell-based
T4 sequence (A0ACM8E5E8 1-384 Y215H): T1 sequence (A0ACM8E5E8 1-384 I40F) with F40I, Y215H
Description: as §1, §2, §3

[5] = tested on: is-octβ2R Y215^5.58H mutant; experiment: as above; assay type: cell-based, Ixodes scapularis; conditions: versus wild type
Description: as §1, §2, §3

[6] = tested on: is-octβ2R D110^3.32N mutant; experiment: TGFα shedding assay, mutant D110^3.32N; assay type: cell-based, Ixodes scapularis; conditions: Table S6
Description: as §1
(§4) ΔOD405=OD450(1h)−OD405(0h)AP−TGFαinsupernatant(%)=(ΔOD405Sup/[ΔOD450Sup+ΔOD405Cell])×125AP−TGFαrelease(%)=AP−TGFαinsupernatantunderastimulatedcondition(%)−AP−TGFαinsupernatantunderavehicle−treatedcondition […]

[7] = tested on: is-octβ2R F189^45.52A mutant; experiment: TGFα shedding assay, mutant F189^45.52A; assay type: cell-based, Ixodes scapularis; conditions: Table S6
Description: as §1, §4

[8] = tested on: is-octβ2R S199^5.42A mutant; experiment: TGFα shedding assay, mutant S199^5.42A; assay type: cell-based, Ixodes scapularis
Description: as §1, §2, §3

[9] = tested on: is-octβ2R W300^6.48A mutant; experiment: TGFα shedding assay, mutant W300^6.48A; assay type: cell-based, Ixodes scapularis; conditions: Table S6
Description: as §1, §4

[10] = target: is-octβ2R F304^6.52A mutant (Ixodes scapularis, UniProt A0ACM8E5E8, F304A); experiment: TGFα shedding assay, mutant F304^6.52A; assay type: cell-based; conditions: Table S6
Description: as §1, §4

Row | SMILES | EC50 [1] | EC50 [2] | EC50 [3] | EC50 [4] | change of EC50 by the Y215^5.58H mutation [5] | reduction of maximal response (Emax) by the Y215^5.58H mutation [5] | logEC50 [6] | logEC50 [7] | logEC50 ([8]; Table S6) | logEC50 [9] | EC50 [10] | logEC50 ([8]; Table S6, listed as octopamine)
1 | CN/C=N/c1ccc(C)cc1C [DPMF, N-2,4-dimethylphenyl-N′-methylformamidine] | 7.94 nM | 6.31 nM | 7.94 nM | 6.31 nM | unaffected | ~50% | no activity | no activity | signal observed only at 10-5 M; also recorded: signal observed only at 10^−5 M | no activity | 63.1 nM | –
2 | NCC(O)c1ccc(O)cc1 (centres unmarked) [Octopamine, octopamine] | 7.94 nM | 12.6 nM | 10 nM | 15.8 nM | 4 fold | ~50% | no activity | no activity | signal observed only at 10-5 M | no activity | 398 nM | signal observed only at 10^−5 M
